Measured values as given in the CheMixHub viscosity set.

Test: xn = mol fraction of the nth substance listed

O=C1CCCCC1 + CC(C)CC(C)(C)C
viscosity [mPa·s]
Details | 293.15 K | 298.15 K | 303.15 K | 308.15 K | 313.15 K
101 kPa, x1 = 0.0911 | 0.5562 | 0.5245 | 0.497 | 0.4702 | 0.4465
101 kPa, x1 = 0.127 | – | 0.551 | – | – | –
101 kPa, x1 = 0.1761 | 0.6094 | 0.5717 | 0.5392 | 0.5101 | 0.4831
101 kPa, x1 = 0.1855 | – | 0.575 | – | – | –
101 kPa, x1 = 0.3071 | – | 0.643 | – | – | –
101 kPa, x1 = 0.3304 | 0.7148 | 0.6685 | 0.6303 | 0.5925 | 0.5593
101 kPa, x1 = 0.4005 | 0.7809 | 0.729 | 0.6869 | 0.643 | 0.6047
101 kPa, x1 = 0.4354 | – | 0.741 | – | – | –
101 kPa, x1 = 0.5171 | – | 0.836 | – | – | –
101 kPa, x1 = 0.5288 | 0.9379 | 0.8709 | 0.8135 | 0.7598 | 0.7134
101 kPa, x1 = 0.5877 | 1.037 | 0.9596 | 0.8935 | 0.8326 | 0.7791
101 kPa, x1 = 0.6149 | – | 0.969 | – | – | –
101 kPa, x1 = 0.6961 | 1.231 | 1.132 | 1.046 | 0.969 | 0.9139
101 kPa, x1 = 0.7054 | – | 1.114 | – | – | –
101 kPa, x1 = 0.7937 | 1.479 | 1.353 | 1.248 | 1.152 | 1.07
101 kPa, x1 = 0.7982 | – | 1.317 | – | – | –
101 kPa, x1 = 0.8836 | – | 1.526 | – | – | –
101 kPa, x1 = 0.9232 | 1.947 | 1.771 | 1.628 | 1.49 | 1.368
101.33 kPa, x1 = 0.103 | – | 0.514 | 0.485 | 0.458 | –
101.33 kPa, x1 = 0.2023 | – | 0.563 | 0.53 | 0.501 | –
101.33 kPa, x1 = 0.3 | – | 0.626 | 0.589 | 0.556 | –
101.33 kPa, x1 = 0.4044 | – | 0.717 | 0.667 | 0.623 | –
101.33 kPa, x1 = 0.5041 | – | 0.808 | 0.751 | 0.702 | –
101.33 kPa, x1 = 0.6035 | – | 0.932 | 0.865 | 0.805 | –
101.33 kPa, x1 = 0.7029 | – | 1.104 | 1.016 | 0.953 | –
101.33 kPa, x1 = 0.8014 | – | 1.309 | 1.199 | 1.106 | –
101.33 kPa, x1 = 0.9008 | – | 1.58 | 1.44 | 1.322 | –

CC(=O)CC(C)C + CC(C)CCO
viscosity [mPa·s]
Details | x1 = 0.1006 | x1 = 0.2027 | x1 = 0.3201 | x1 = 0.3948 | x1 = 0.5073 | x1 = 0.6072 | x1 = 0.7013 | x1 = 0.8032 | x1 = 0.8927
298.15 K, 101 kPa | 2.58 | 1.89 | 1.4 | 1.2 | 0.965 | 0.839 | 0.728 | 0.648 | 0.595
298.15 K, 101.3 kPa | 2.58 | 1.89 | 1.4 | 1.2 | 0.965 | 0.839 | 0.728 | 0.648 | 0.595
303.15 K, 101.3 kPa | 2.26 | 1.69 | 1.28 | 1.1 | 0.903 | 0.781 | 0.682 | 0.617 | 0.566
308.15 K, 101.3 kPa | 1.99 | 1.51 | 1.17 | 1.01 | 0.837 | 0.728 | 0.64 | 0.579 | 0.534
313.15 K, 101.3 kPa | 1.75 | 1.36 | 1.05 | 0.926 | 0.766 | 0.681 | 0.602 | 0.545 | 0.506
